{"source": "paper PMC3760392", "about": "(Bioorganic & medicinal chemistry, 2013)", "key": {"[1]": {"target": "rD3 receptor (Rattus norvegicus, UniProt P19020)", "sequence (P19020 whole entry)": "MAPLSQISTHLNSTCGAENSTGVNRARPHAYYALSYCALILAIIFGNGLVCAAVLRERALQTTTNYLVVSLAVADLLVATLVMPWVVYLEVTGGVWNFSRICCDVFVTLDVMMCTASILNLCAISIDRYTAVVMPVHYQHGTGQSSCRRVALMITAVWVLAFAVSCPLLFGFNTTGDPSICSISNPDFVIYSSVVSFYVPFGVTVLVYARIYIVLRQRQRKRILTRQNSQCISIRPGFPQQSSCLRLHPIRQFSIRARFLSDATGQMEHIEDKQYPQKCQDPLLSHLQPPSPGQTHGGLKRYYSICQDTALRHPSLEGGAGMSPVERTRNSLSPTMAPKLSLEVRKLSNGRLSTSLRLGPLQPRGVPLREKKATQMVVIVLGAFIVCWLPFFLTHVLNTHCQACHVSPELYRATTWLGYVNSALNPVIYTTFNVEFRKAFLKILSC"}, "[2]": {"target": "rD2L receptor (Rattus norvegicus, UniProt P61169)", "sequence (P61169 whole entry)": "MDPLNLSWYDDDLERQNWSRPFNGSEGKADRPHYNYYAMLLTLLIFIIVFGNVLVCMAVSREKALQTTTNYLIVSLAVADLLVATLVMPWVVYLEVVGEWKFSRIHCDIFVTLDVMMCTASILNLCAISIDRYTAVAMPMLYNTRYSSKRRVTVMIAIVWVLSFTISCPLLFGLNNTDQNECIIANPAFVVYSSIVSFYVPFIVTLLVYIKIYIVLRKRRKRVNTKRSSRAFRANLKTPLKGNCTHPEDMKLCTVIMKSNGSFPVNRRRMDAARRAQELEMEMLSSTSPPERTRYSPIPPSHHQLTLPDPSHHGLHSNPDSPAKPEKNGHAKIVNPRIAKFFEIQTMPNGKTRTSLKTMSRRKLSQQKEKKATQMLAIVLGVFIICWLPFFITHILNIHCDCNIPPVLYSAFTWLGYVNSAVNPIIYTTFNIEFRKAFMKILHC", "settings": "read-out: Ki (nM), rD2L [3H]spiperone; HEK293 cells, mean ± SEM"}, "[3]": {"test_system": "D3 than D2 receptor", "settings": "cited from earlier work"}}}
{"compound": "N^6-(2-(4-Phenylpiperazin-1-yl)ethyl)-N^6-propyl-5,6,7,8-tetrahydro-1H-naphtho[2,3-d]imidazole-2,6-diamine [Compound 10e]", "values": [{"measurement": "D2L/D3", "setting": "[1]; ratio of Ki rD2L / Ki rD3", "value": 8.89}, {"measurement": "Ki", "setting": "[1]; read-out: Ki (nM), rD3 [3H]spiperone, HEK293 cells, mean ± SEM", "value": 1790, "unit": "nM"}, {"measurement": "Ki", "setting": "[2]", "value": 15900, "unit": "nM"}]}
{"compound": "CCCN[C@H]1CCc2nc(N)sc2C1", "note": "[pramipexole]", "values": [{"measurement": "fold higher affinity for the D3 than D2 receptor", "setting": "[3]", "value": "4- to 10 fold"}]}
